Assays:
human 5-HT1A receptor = molecular target: T1, human 5-HT1A receptor (Homo sapiens, UniProt P08908); assay: Radioligand binding, [3H]-8-OH-DPAT displacement, HEK-293 cells; details: mean ± SEM, three independent binding experiments; read-out: Ki [nM] 5-HT1AR
T1 construct: expressed in transfected cells
T1 sequence (P08908 1-422): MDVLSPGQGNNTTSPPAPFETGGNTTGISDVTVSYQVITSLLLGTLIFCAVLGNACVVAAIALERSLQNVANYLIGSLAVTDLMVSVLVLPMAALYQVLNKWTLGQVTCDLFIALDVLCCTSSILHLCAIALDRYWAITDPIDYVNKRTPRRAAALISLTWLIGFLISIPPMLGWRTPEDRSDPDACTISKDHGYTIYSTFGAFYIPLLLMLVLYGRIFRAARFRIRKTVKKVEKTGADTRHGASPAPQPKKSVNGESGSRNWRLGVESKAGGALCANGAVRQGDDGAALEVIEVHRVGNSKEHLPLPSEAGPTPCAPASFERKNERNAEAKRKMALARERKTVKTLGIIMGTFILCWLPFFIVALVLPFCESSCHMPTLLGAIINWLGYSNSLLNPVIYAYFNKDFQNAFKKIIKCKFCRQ
Protocol: (§1) All experiments were performed in HEK-293 cells, which stably express the human 5-HT1A, 5-HT6, 5-HT7b, and D2L receptors, or using CHO-K1 cells expressing human serotonin 5-HT2A receptor, following the previously reported procedures. For displacement studies, the following radioligands (PerkinElmer, USA) at given concentrations were used at: 2.5 nM [^3H]-8-OH-DPAT (135.2 Ci/ mmol); 1 nM [^3H]-ketanserin (53.4 Ci/mmol); 2 nM [^3H]-LSD (83.6 Ci/mmol); 0.8 nM [^3H]-5-CT (39.2 Ci/mmol) or 2.5 nM [^3H]-raclopride (76.0 Ci/mmol) for 5-HT1A, 5-HT2A, 5-HT6, 5-HT7b and D2L receptors, respectively. All tested compounds were evaluated in triplicate at 7 concentrations (10^−10–10^−4 M). The inhibition constants (Ki) were calculated from the Cheng–Prusoff equation [25]. A detailed description is reported in the Supporting Information.
(§2) 1. Procedure for radioligand binding assay
(§3) All experiments were carried out according to the previously published procedures. HEK293 cells stably expressing human 5-HT1A, 5-HT6, 5-HT7b and D2L receptors (prepared with the use of Lipofectamine 2000) or CHO-K1 cells with plasmid containing the sequence coding for the human serotonin 5-HT2A receptor (Perkin Elmer) were maintained at 37 °C in a humidified atmosphere containing 5% CO2 and grown in Dulbecco’s Modified Eagle’s Medium containing 10% dialyzed fetal bovine serum and 500 μg/ml G418 sulfate. For membrane preparation, cells were cultured in 150 cm2 flasks, grown to 90% confluence, washed twice with pre-warmed to 37 °C phosphate buffered saline (PBS) and centrifuged (200 × g) in PBS containing 0.1 mM EDTA and 1 mM dithiothreitol. Prior to membrane preparation, pellets were stored at –80 °C. […]
(§4) The process of equilibration was terminated by rapid filtration through Unifilter plates with a 96-well cell harvester and radioactivity retained on the filters was quantified on a Microbeta plate reader (PerkinElmer, USA). […] The inhibition constants (Ki) were calculated from the Cheng-Prusoff equation [4].

[1] = molecular target: T2, human serotonin 5-HT2A receptor (Homo sapiens, UniProt P28223); assay: Radioligand binding, [3H]-ketanserin displacement, CHO-K1 cells; details: mean ± SEM, three independent binding experiments; read-out: Ki [nM] 5-HT2AR
T2 construct: host or cells: CHO-K1

human D2L receptor = molecular target: T3, human D2L receptor (Homo sapiens, UniProt P14416); assay: Radioligand binding, [3H]-raclopride displacement, HEK-293 cells; details: mean ± SEM, three independent binding experiments; read-out: Ki [nM] D2
T3 construct: expressed in transfected cells
Protocol: as §1, §2, §3, §4

[2] = Cytotoxicity, MTT test, C8-D1A; format: cell-based; details: mouse, C8-D1A cells (mouse astrocytes)
Protocol: Hepatotoxicity, neurotoxicity, and glial cytotoxicity were investigated using the following cellular models: human hepatocellular carcinoma (HepG2), human neuroblastoma (SHSY-5Y), and mouse astrocytes (C8-D1A), all from ATCC (American Type Culture Collection, Manassas, VA, USA). Cells were cultured in appropriate culture media recommended by ATCC supplemented with 10% fetal bovine serum (FBS; Gibco, Life Technologies, Carlsbad, CA, USA) and 1% antibiotic mixture (Gibco, Life Technologies, Carlsbad, CA, USA). Cells were cultured at standard conditions (5% CO2, 95% humidity, 37 °C). For cytotoxicity experiments, cells were seeded into 96 well plates at an initial density of 2000 cells/well. After overnight incubation, cells were treated with 3e, 3f, and 3g in a concentration range of 0.78–50 µM for 48 h; then, an MTT assay was performed as described previously. Briefly, following cell exposure, 10 µL of MTT reagent was added to each well. After the next 4 h, the medium was aspirated, and formazan produced in cells appeared as dark crystals in the bottom of the wells. Next, 100 µL DMSO was added to each well. Then, the optical density of the solution (OD) at 570 nm was determined on a plate reader (Spectra Max iD3, Molecular Devices, San Jose, CA, USA). The experiments were run three times in triplicates.

T2 sequence (P28223 whole entry): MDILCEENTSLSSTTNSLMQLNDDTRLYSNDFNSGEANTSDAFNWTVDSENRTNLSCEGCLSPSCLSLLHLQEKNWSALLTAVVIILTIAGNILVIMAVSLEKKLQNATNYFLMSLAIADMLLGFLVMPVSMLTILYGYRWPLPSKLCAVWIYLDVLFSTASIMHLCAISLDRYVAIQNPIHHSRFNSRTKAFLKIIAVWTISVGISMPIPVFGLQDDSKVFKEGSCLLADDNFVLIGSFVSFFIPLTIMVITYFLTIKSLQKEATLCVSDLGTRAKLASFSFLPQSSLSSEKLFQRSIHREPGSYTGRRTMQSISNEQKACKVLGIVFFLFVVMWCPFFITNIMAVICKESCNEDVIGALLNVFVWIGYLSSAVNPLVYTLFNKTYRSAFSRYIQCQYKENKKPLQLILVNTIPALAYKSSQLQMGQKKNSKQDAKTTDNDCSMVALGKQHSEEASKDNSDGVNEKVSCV
T3 sequence (P14416 whole entry): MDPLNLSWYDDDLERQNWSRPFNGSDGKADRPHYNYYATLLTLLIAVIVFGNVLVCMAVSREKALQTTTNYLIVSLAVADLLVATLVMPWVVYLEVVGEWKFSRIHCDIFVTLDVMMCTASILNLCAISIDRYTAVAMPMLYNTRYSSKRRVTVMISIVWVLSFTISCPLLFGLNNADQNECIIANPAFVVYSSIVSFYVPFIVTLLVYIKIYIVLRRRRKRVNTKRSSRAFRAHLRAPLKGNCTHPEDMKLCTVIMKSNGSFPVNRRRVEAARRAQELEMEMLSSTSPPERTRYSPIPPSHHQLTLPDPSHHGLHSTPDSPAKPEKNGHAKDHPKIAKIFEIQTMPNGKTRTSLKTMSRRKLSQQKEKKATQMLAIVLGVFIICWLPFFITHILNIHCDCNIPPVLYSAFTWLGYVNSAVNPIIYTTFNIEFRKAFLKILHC

**Q.** For `O=S(=O)(c1cccc(N2CCNCC2)c1)N1Cc2ccccc2C1` [3e, 2-{[3-(Piperazin-1-yl)phenyl]sulfonyl}isoindoline], which Ki (human 5-HT1A receptor) is on record?
**A.** 951 ± 120 nM

**Q.** And the Ki [1]?
**A.** 128 ± 37 nM

**Q.** And the Ki (human D2L receptor)?
**A.** 3420 ± 415 nM

**Q.** What about the IC50 at 48 h [2] of the same compound?
**A.** > 50000 nM

**Q.** With `O=S(=O)(c1cccc(N2CCNCC2)c1)N1Cc2cccc(Cl)c2C1` [3f, 4-Chloro-2-{[3-(piperazin-1-yl)phenyl]sulfonyl}isoindoline] as the compound, how does the Ki (human 5-HT1A receptor) read?
**A.** 385 ± 71 nM

**Q.** What about the Ki [1] of the same compound?
**A.** 170 ± 32 nM

**Q.** What about the Ki (human D2L receptor) of the same compound?
**A.** 2030 ± 299 nM

**Q.** What about the IC50 at 48 h [2] of the same compound?
**A.** > 50000 nM

**Q.** Which Ki (human 5-HT1A receptor) does the source give for `O=S(=O)(c1cccc(N2CCNCC2)c1)N1Cc2cccc(Br)c2C1` [3g, 4-Bromo-2-{[3-(piperazin-1-yl)phenyl]sulfonyl}isoindoline] here?
**A.** 680 ± 33 nM

**Q.** And the Ki [1]?
**A.** 159 ± 25 nM

**Q.** And the Ki (human D2L receptor)?
**A.** 2440 ± 324 nM

**Q.** And the IC50 at 48 h [2]?
**A.** > 50000 nM

— PMC9855333, “1-(Arylsulfonyl-isoindol-2-yl)piperazines as 5-HT6R Antagonists: Mechanochemical Synthesis, In Vitro Pharmacological Properties and Glioprotective Activity” (Biomolecules, 2022)
